Reference: patent publication US20150126530A1, “Novel Substituted Imidazopyrimidines as Gpbar1 Receptor Modulators” (Torrent Pharmaceuticals Limited., priority 2011, published 2015)

Columns and labels:
DIO mice = assay: Efficacy study on repeated dosing in DIO mice; type: in vivo; conditions: od; for % Change in body wt from basal: repeated administration
Experimental: (§1) ii) Evaluation of Efficacy of Test Compounds on Repeated Dosing in Diabetic Hamster and DIO Mice. […]
b) Efficacy Study in DIO Mice
Male C57B1/6J mice were made insulin resistant by feeding on High fat diet (45.5% Kcal from Fat, Research Diet) from the age of 6-8 week onwards. After being on High fat diet for 6-8 weeks the animals with similar body weights & fasting plasma glucose were further randomized into treatment groups. Then the animals were treated with compounds 7 to assess the efficacy potential during treatment duration. Effect of treatment on glucose excursion and insulin secretion during OGTT, Fasting Plasma Glucose & Insulin, lipid profile and body weight were evaluated. The compound for enhancing energy expenditure was evaluated by monitoring oxygen consumption (VO2) and carbon dioxide release (VCO2) over 24 hrs period by indirect calorimetry (Oxymax System, Columbus Instruments).
Similarly, the study was conducted in DIO mice with compound no 50 of the present invention.

[1] = test system: Human enteroendocrine cell-line (NCI-H716); assay: Measurement of Glucagon Like Peptide-1 (GLP-1) secretion; type: cell-based; conditions: NCI-H716 cells, one hour, with respect to vehicle control
Experimental: (C) Measurement of Glucagon Like Peptide-1 (GLP-1):
Human enteroendocrine cell-line (NCI-H716) were incubated with vehicle or test compounds for one hour. At the end of incubation period, levels of secreted GLP-1 in culture medium were measured by GLP-1 ELISA kit (Millipore). Results are summarized as fold increase in GLP secretion with respect to vehicle control in Table 4.

human TGR5 [2] = molecular target: T1, human TGR5 (Homo sapiens, UniProt Q8TDU6); assay: cAMP Responsive Element (CRE)-Reporter Assay; type: cell-based; conditions: luciferase activity relative to vehicle control, five hours, CHO cells transfected with human TGR5 and CRE-luciferase
T1 construct: host or cells: CHO cells (ATCC)
T1 sequence (Q8TDU6 1-330): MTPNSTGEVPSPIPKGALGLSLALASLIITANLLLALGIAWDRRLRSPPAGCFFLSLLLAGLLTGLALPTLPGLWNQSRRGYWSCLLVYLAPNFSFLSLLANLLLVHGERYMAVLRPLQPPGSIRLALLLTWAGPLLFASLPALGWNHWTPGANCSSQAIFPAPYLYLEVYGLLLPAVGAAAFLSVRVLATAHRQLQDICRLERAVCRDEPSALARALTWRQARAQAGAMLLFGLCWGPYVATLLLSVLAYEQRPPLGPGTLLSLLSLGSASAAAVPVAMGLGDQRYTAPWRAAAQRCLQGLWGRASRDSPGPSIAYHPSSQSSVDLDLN
Experimental: (A) cAMP Responsive Element (CRE)-Reporter Assay:
CHO cells (ATCC) were transfected with human TGR5 (oriGene) and CRE-luciferase reporter vector. Transfected cells were treated with vehicle control or test compounds (Conc 10 μM) for five hours and then lysed. Cell lysates were monitored for luciferase acivity. Increase in luciferase activity is considered as a result of TGR5 activation. Results were expressed as fold induction as compared to vehicle control.
Results are summarized in Table 2 where, + indicates 1.5-2 fold while ++, +++, ++++ indicate 2-3 fold, 3-4 fold, and >4 fold induction respectively relative to vehicle control when tested at 10 μM concentration.

Diabetic Hamster [3] = assay: Efficacy study on repeated dosing in diabetic hamster; type: in vivo; conditions: for HOMA-IR: from fasting glucose and insulin
Experimental: as §1
a) Efficacy Study in Diabetic Hamster
Diabetic hamsters were randomized to two treatment groups viz. vehicle treated and test compound treated group. Then the animals were treated with compound 7 of present invention or vehicle for 2 weeks to assess the efficacy potential of the compound. Effect of treatment on glucose excursion and insulin secretion during OGTT, change in body weight & fasting and random plasma triglycerides (TG) was evaluated during the treatment period. The effect of repeated administration of compound on energy expenditure was evaluated through monitoring oxygen consumption (VO2) over 21 hrs period by indirect calorimetry (Oxymax System, Columbus Instruments). HOMA-IR an index of insulin resistance was estimated using fasting glucose and insulin levels estimated during OGTT.
Similarly, the study was conducted using compound no 50 of the present invention for the duration of four week period in Diabetic hamsters.

Diabetic Hamster [4] = assay: Single dose efficacy on glucose tolerance (OGTT) in diabetic hamster; type: in vivo; conditions: Mesocricetus auratus, read-out: Decrease in AUC of glucose % change w.r.t. vehicle control group
Experimental: i) Evaluation of Single Dose Efficacy of Test Compounds on Glucose Tolerance:
Thus efficacy can be assessed through the effect of test compounds on lowering of plasma glucose during OGTT through stimulating glucose stimulated insulin secretion.
The potential of test compounds in lowering of Plasma Glucose was evaluated in Oral glucose tolerance test (OGTT) in Diabetic Hamster Model, where diabetes has been induced by administration of low dose of Streptozotocin (STZ) to the High fat diet (HFD) fed glucose intolerant animals. The diabetic hamsters show impaired glucose stimulated insulin secretion and higher plasma glucose excursions than the normal animals, which remains elevated beyond 2 hrs post glucose load. Thus the animal model can be used for evaluating the potential of test compounds to lower plasma glucose through stimulating glucose stimulated insulin secretion. On the day of study post 6 hrs of fasting, test compounds or vehicle was administered orally at dose volume of 2 ml/kg to the hamsters of the respective treatment groups. Subsequent to dosing, a pre-glucose load blood sample was taken. A glucose load of 40% solution at 5 ml/Kg dose volume was administered orally. Blood samples through retroorbital plexus were taken at 15, 30 60 & 120 min. post glucose load and plasma was separated for glucose measurement. Post glucose load percentage change in plasma glucose and AUC of % change glucose by the treatment was assessed.

human TGR5 [5] = molecular target: T1, human TGR5; assay: cAMP Measurement Assay (Alphascreen); type: cell-based; conditions: cAMP levels, CHO cells transfected with human TGR5, one hour
Experimental: (B) cAMP Measurement Assay:
CHO cells (ATCC) were transfected with human TGR5 vector (oriGene). Transfected cells were treated with vehicle control or test compounds for one hour and then lysed. Levels of cAMP were measured in cell lysates employing Alphascreen cAMP assay kit (Perkin Elmer) and results were expressed EC50 values which are summarized in Table 3.

[6] = 1.5 mg/kg, listed as compound no. 7, 1.5 mg/kg
[7] = 20 mg/kg, po, bid, 2 weeks, listed as compound no. 7, 20 mg/kg
[8] = compound no. 7 repeated dosing, 2 weeks
[9] = 9 mg/kg, listed as compound no. 50, 9 mg/kg
[10] = 6 mg/kg, i.p. OD, four week, listed as compound no. 50, 6 mg/kg
[11] = compound no. 50 repeated dosing, four week

Structure (SMILES): CN(C(=O)c1c(-c2ccc(F)cc2)nc2ncccn12)c1ccc(Cl)cc1 [Compound no. 7, N-(4-chlorophenyl)-2-(4-fluorophenyl)-N-methylimidazo[1,2-a]pyrimidine-3-carboxamide]
- AUC_Insulin % change during OGTT (DIO mice; 1.5 mg/kg): 5431.0 ± 920.9
- AUC_glucose % change during OGTT (DIO mice; 1.5 mg/kg): 4526.7 ± 876.8
- Fasting plasma TG (DIO mice; 1.5 mg/kg): 40.4 ± 2.3 mg/dL
- HOMA-IR (DIO mice; 1.5 mg/kg): 4.7 ± 1.68
- Oxygen consumption (DIO mice; 1.5 mg/kg, indirect calorimetry over 24 hrs): 51.938 ± 1.768 mL/min/kg
- Oxygen consumption (DIO mice; 1.5 mg/kg, indirect calorimetry over 24 hrs, listed as compound no. 7, 1.5 mg/kg): increased energy expenditure
- AUC_Insulin % change during OGTT (DIO mice; [6]): improved insulin secretion
- AUC_glucose % change during OGTT (DIO mice; [6]): reduced glucose excursion
- Fasting plasma TG (DIO mice; [6]): decreased plasma TG levels
- HOMA-IR (DIO mice; [6]): decrease in HOMA-IR
- % Change in body wt from basal (DIO mice; 1.5 mg/kg): −3.19 ± 1.32%
- % Change in body wt from basal (DIO mice; [6]): reduced body weight
- Fold increase in GLP Release [1]: 3.72 fold
- fold induction at 10 µM (human TGR5 [2]): > 4
- % Change in body wt fro basal (Diabetic Hamster [3]; 20 mg/kg, po, bid, 2 weeks): −5.2 ± 1.6%
- AUC_Insulin % change during OGTT (Diabetic Hamster [3]; 20 mg/kg, po, bid, 2 weeks): 2280.6 ± 428.8
- AUC_glucose % change during OGTT (Diabetic Hamster [3]; 20 mg/kg, po, bid, 2 weeks): 12714.43 ± 912
- Fasting plasma TG (Diabetic Hamster [3]; 20 mg/kg, po, bid, 2 weeks): 188.35 ± 3.7 mg/dL
- Random plasma T (Diabetic Hamster [3]; 20 mg/kg, po, bid, 2 weeks): 344.38 ± 90.3 mg/dL
- HOMA-IR (Diabetic Hamster [3]; 20 mg/kg, po, bid, 2 weeks): 15.6 ± 2.1
- HOMA-IR (Diabetic Hamster [3]; [7]): decrease in HOMA-IR
- Oxygen consumption (Diabetic Hamster [3]; 20 mg/kg, po, bid, 2 weeks, indirect calorimetry over 21 hrs): 22.551 ± 0.638 mL/min/kg
- Oxygen consumption (Diabetic Hamster [3]; 20 mg/kg, po, bid, 2 weeks, indirect calorimetry over 21 hrs, listed as compound no. 7, 20 mg/kg): increased energy expenditure
- % Change in body wt fro basal (Diabetic Hamster [3]; [7]): reduced body weight
- AUC_Insulin % change during OGTT (Diabetic Hamster [3]; [7]): improved insulin secretion
- AUC_glucose % change during OGTT (Diabetic Hamster [3]; [7]): reduced glucose excursion
- Fasting plasma TG (Diabetic Hamster [3]; [7]): decreased plasma TG levels
- decrease in LDL (Diabetic Hamster [3]; [8]): 14%
- decrease in non HDL (Diabetic Hamster [3]; [8]): 24%
- improvement in HDL:LDL ratio (Diabetic Hamster [3]; [8]): 24%
- increase in HDL (Diabetic Hamster [3]; [8]): 7%
- inhibition in vivo at 38 mg/kg (Diabetic Hamster [4]; single oral dose 38 mg/kg): 39%
- EC50 (human TGR5 [5]): 90 nM

Structure (SMILES): CN(C(=O)c1c(Oc2ccc(F)cc2)nc2ncccn12)c1ccc(Cl)cc1 [Compound no. 50, N-(4-chlorophenyl)-2-(4-fluorophenoxy)-N-methylimidazo[1,2-a]pyrimidine-3-carboxamide]
- AUC_Insulin % change during OGTT (DIO mice; 9 mg/kg): 12938.8
- AUC_glucose % change during OGTT (DIO mice; 9 mg/kg): 7763.5
- HOMA-IR (DIO mice; 9 mg/kg): 1.96
- Oxygen consumption (DIO mice; 9 mg/kg): 46.125 mL/min/kg
- AUC_Insulin % change during OGTT (DIO mice; [9]): improved insulin secretion
- AUC_glucose % change during OGTT (DIO mice; [9]): reduced glucose excursion
- HOMA-IR (DIO mice; [9]): decrease in HOMA-IR
- Oxygen consumption (DIO mice; [9]): increased energy expenditure
- % Change in body wt from basal (DIO mice; 9 mg/kg): −3.29%
- % Change in body wt from basal (DIO mice; [9]): reduced body weight
- Fold increase in GLP Release [1]: 1.74 fold
- fold induction at 10 µM (human TGR5 [2]): > 4
- % Change in body wt from basal (Diabetic Hamster [3]; 6 mg/kg, i.p. OD, four week): −1.56%
- AUC_glucose % change during OGTT (Diabetic Hamster [3]; 6 mg/kg, i.p. OD, four week): 6225.7
- Fasting plasma TG (Diabetic Hamster [3]; 6 mg/kg, i.p. OD, four week): 97.8 mg/dL
- Oxygen consumption (Diabetic Hamster [3]; 6 mg/kg, i.p. OD, four week): 25.0092 mL/min/kg
- % Change in body wt from basal (Diabetic Hamster [3]; [10]): reduced body weight
- AUC_glucose % change during OGTT (Diabetic Hamster [3]; [10]): reduced glucose excursion
- Fasting plasma TG (Diabetic Hamster [3]; [10]): decreased plasma TG levels
- Oxygen consumption (Diabetic Hamster [3]; [10]): increased energy expenditure
- decrease in LDL (Diabetic Hamster [3]; [11]): 16%
- decrease in non HDL (Diabetic Hamster [3]; [11]): 24%
- improvement in HDL:LDL ratio (Diabetic Hamster [3]; [11]): 16%
- inhibition in vivo at 40 mg/kg (Diabetic Hamster [4]; single oral dose 40 mg/kg): 10%
- EC50 (human TGR5 [5]): 354 nM
